What was measured:
HSP90α = molecular target: T1, HSP90α (Homo sapiens, UniProt P07900); assay: HSP90 binding assay (fluorescent ELISA, competition with biotinylated Geldanamycin); settings: reported as range of IC50's
T1 construct: purchased Stressgen Lot B506492
Procedure: The biochemical assay is described as follows.
Purified HSP90α […] was purchased from Stressgen Lot B506492. Single use aliquots of the 1.15 mg/ml stock were prepared and stored at −80° C. to avoid multiple freeze-thaw cycles.
A Nunc Maxisorb plate was coated overnight at 4° C. with 200 ng of HSP90/well dissolved in DPBS. The following day the plates were washed with TBST and blocked for 2 h at room temperature with blocking buffer (20 mM HEPES pH 7.3, 1 mM EDTA, 5 mM MgCl2, 100 mM KCl, 5% BSA). Blocking buffer was removed by washing plates with TBST, and test compounds dissolved in assay buffer (20 mM HEPES pH 7.3, 1 mM EDTA, 5 mM MgCl2, 100 mM KCl, 1% BSA) were added to plate. […] The reaction is incubated for 60 minutes at room temperature. […] Competitive inhibitory compounds will block this interaction from occurring.
The reactions were stopped by washing the plate with TBST. The binding of the bio-GM is detected by the addition of an Alkaline Phosphatase tagged Streptavidin molecule. A TBST wash eliminates any unbound detection agent, and the Alkaline Phosphate substrate Attophos is introduced. This substrate generates a fluorescent signal at […] when excited at […]. These plates can be monitored on either a Victor 5 or Perkin Elmer Envision multilabel reader.

SK-BR-3 = assay: MTS assay (cell viability); type: cell-based; settings: Homo sapiens; SK-BR-3 cells, 72 hours with compound, 50% reduction in number of viable cells; read-out: IC50'S(SK-BR-3)
Procedure: The anti-proliferative effects of biochemically active compounds were measured utilizing the MTS assay. The generalized procedure is describes as follows:
The cells are then trypsinized and re-plated in 96 well sterile cell culture plates in 130 μl/well growth media at a density that allows confluency of approximately 50% after 72 hours of growth. These starting densities vary across cell lines based on individual doubling times. The day following plating, the cell was treated with an appropriate concentration of compound diluted in DMSO. Cell plates were allowed to grow undisturbed at 37° C., 5% CO2 for 72 h. After 72 hours, 30 μl of a solution of 0.046 mg/ml Phemazine methosulfate (PMS) (Fluka product 68600) and 1.9 mg/ml MTS reagent ([3-(4,5-dimethylthiazol-2-yl)-5-(3 carboxymethoxyphenyl)-2-(4-sulfophenyl)-2H-tetrazolium, inner salt (Promega product G1111) is added directly to the well. Plate is re-incubated at 37° C., 5% CO2 for 4 hr. Plates were then read on the Perkin Elmer Envision to determine absorbance at 490 nm.
Cell viability was determined by measuring the activity of dehydrogenase enzymes in metabolically active cells using a tetrazolium compound, MTS. The assay was performed as described in Promega Technical Bulletin No. 169 (CellTiter 96 Aqueous Non-Radioactive Cell Proliferation Assay). Ten human cancer cell lines were assayed (see, e.g. Table 1). Cells were maintained at 37° C. and 5% CO2 in DMEM media (4.5 g/L glucose) supplemented with 10% heat-inactivated FBS, 10 mM L-glutamine, and 10 mM Hepes pH 7.5. Briefly, cells were seeded in 96-well plates as set forth in Table 1 and incubated for 16-24 hours. Candidate compounds were serially diluted in DMSO, further diluted in cell culture media, and then added to cells (final DMSO concentration of 0.33%). Cells were incubated in the presence of candidate compound for 72 hours. MTS stock solution (MTS 2 gm/L, PMS […] in PBS) was added to the cells (final concentration MTS […] and PMS 7.67 mg/L) and incubated for 4 hours. SDS was added to a final concentration of 1.4% and absorbance at 490 nm was measured within two hours using a plate reader. The IC50 was defined as the concentration of compound that results in a 50% reduction in the number of viable cells as compared to control wells treated with DMSO only (0.33%) and was calculated using non-linear regression analysis. IC50 values were given in Table 3 for the compounds listed.

[1] = aqueous solution; cited from earlier work
[2] = clinical trials; cited from earlier work

SMILES	IC50 (HSP90α) [µM]	IC50 (SK-BR-3) [µM]	also measured
COCCCn1nnnc1-c1cc(-c2cc(C(C)C)ccc2OC)c(O)cc1O [Compound 16, 5′-isopropyl-2′-methoxy-5-[1-(3-methoxy-propyl)-1H-tetrazol-5-yl]-biphenyl-2,4-diol]	1 to 10	–	melting point: 174 to 176 °C
COCCCn1nnnc1-c1cc(-c2cccc(C(F)(F)F)c2)c(O)cc1O [Compound 7, 5-[1-(3-methoxy-propyl)-1H-tetrazol-5-yl]-3′-trifluoromethyl-biphenyl-2,4-diol]	10 to 50	15.3	melting point: 144 to 182 °C
CO[C@H]1/C=C\C=C(/C)C(=O)NC2=CC(=O)C(NCCN(C)C)=C(C[C@@H](C)C[C@H](OC)[C@H](O)[C@@H](C)/C=C(\C)[C@@H]1OC(N)=O)C2=O [DMAG, 17-Dimethylaminoethylamino-17-demethoxygeldanamycin]	–	–	solubility [1]: low solubility
COC1=C2C[C@@H](C)C[C@H](OC)[C@H](O)[C@@H](C)/C=C(\C)[C@H](OC(N)=O)[C@@H](OC)/C=C\C=C(/C)C(=O)NC(=CC1=O)C2=O [geldanamycin]	–	–	solubility [1]: poorly soluble; hepatotoxicity [2]: hepatotoxicity proved problematic
C=CCNC1=C2C[C@@H](C)C[C@H](OC)[C@H](O)[C@@H](C)/C=C(\C)[C@H](OC(N)=O)[C@@H](OC)/C=C\C=C(/C)C(=O)NC(=CC1=O)C2=O [Compound 17-AAG, 17-Allylamino-17-demethoxygeldanamycin]	–	–	solubility [1]: low solubility
COc1ccc(C(C)C)cc1-c1cc(-c2nnnn2CCc2ccccc2)c(O)cc1O [Compound 26, 5′-isopropyl-2′-methoxy-5-(1-phenethyl-1H-tetrazol-5-yl)-biphenyl-2,4-diol]	10 to 50	–	melting point: 206 to 209 °C
COCCn1nnnc1-c1cc(-c2cc(C(F)(F)F)ccc2F)c(O)cc1O [Compound 10, 2′-Fluoro-5-[1-(2-methoxy-ethyl)-1H-tetrazol-5-yl]-5′-trifluoromethyl-biphenyl-2,4-diol]	> 50	–	–

Continued, in another order:

IC50 (HSP90α) [µM]	IC50 (SK-BR-3) [µM]	SMILES	also measured
–	13.5	COc1ccc(C(C)C)cc1-c1cc(-c2nnnn2CCCOC(C)C)c(O)cc1O [Compound 99, 5-[1-(3-Isopropoxy-propyl)-1H-tetrazol-5-yl]-5′-isopropyl-2′-methoxy-biphenyl-2,4-diol]	–
–	3.22	COc1ccc(C(C)C)cc1-c1cc(-c2nnnn2CCCc2ccccc2)c(O)cc1O [Compound 100]	–
–	1.58	COc1ccc(C(C)C)cc1-c1cc(-c2nnnn2C(C)C)c(O)cc1O [Compound 110]	–
–	13.7	COc1ccc(C(C)C)cc1-c1cc(-c2nnnn2C2CCC2)c(O)cc1O [Compound 108, 5-(1-Cyclobutyl-1H-tetrazol-5-yl)-5′-isopropyl-2′-methoxy-biphenyl-2,4-diol]	–
1 to 10	–	COc1ccc(C(=O)N2CCC(n3nnnc3-c3cc(-c4cc(C(C)C)ccc4OC)c(O)cc3O)CC2)cc1 [Compound 37, {4-[5-(4,6-dihydroxy-5′-isopropyl-2′-methoxy-biphenyl-3-yl)-tetrazol-1-yl]-piperidin-1-yl}-(4-methoxy-phenyl)-methanone]	–
> 50	–	COCCCn1nnnc1-c1cc(-c2cccc(C(=O)NCCC3CCCN3C)c2)c(O)cc1O (stereo not shown) [Compound 68, 2′,4′-Dihydroxy-5′-[1-(3-methoxypropyl)-1H-tetrazol-5-yl]-biphenyl-3-carboxylic acid [2-(1-methyl-pyrrolidin-2-yl)-ethyl]-amide]	–
> 50	–	CCCCn1nnnc1-c1cc(-c2cccc(C(=O)N3CCCC(C(=O)N(CC)CC)C3)c2)c(O)cc1O (stereo not shown) [Compound 51]	–
